Source: US20250073198A1, “COMPOUNDS AND USE THEREOF FOR THE TREATMENT OF DISEASES ASSOCIATED WITH IMPAIRED ß-GALACTOSIDASE ACTIVITY” (DORPHAN SA, priority 2022, published 2025)

Key:
[1] = prior art statement; cited from earlier work
[2] = including pediatric patients; cited from earlier work
cathepsin B = target: T1, cathepsin B (Sus scrofa, UniProt A1E295); test: In-vitro enzymatic activity assay on isolated cathepsin B (pork liver homogenate, Z-FR-AMC substrate); assay type: biochemical; conditions: for IC50: ester prodrug hydrolysed with NaOH to the free acid, 1 hour at 37° C., pH 6.0, read-out: IC50, inhibition of cathepsin B (catB) activity in pork liver homogenate; for inhibitory activity against isolated catB, compared to E64c: pork liver homogenate, result in words
T1 construct: from tissue; host or cells: pork liver homogenate
Method: The ability of the compounds VRO006_hydrol, VRO047_hydrol, VRO052_hydrol, VRO059_hydrol, VRO073_hydrol, VRO109_hydrol, VRO244_hydrol, VRO001_hydrol, VRO082_hydrol, VRO035_hydrol, VRO119_hydrol, and VRO243_hydrol to inhibit isolated cathepsin B was assessed in an enzymatic assay and compared to the inhibitory activity of the prior art E64c. In this assay, the compounds VRO006, VRO042, VRO047, VRO052, VRO059, VRO073, VRO109, VRO244, VRO001, VRO082, VRO035, VRO119, and VRO243 were used and the assay was performed in the presence of NaOH, in order to simulate the ester cleavage that occurs within the gastrointestinal tract, and to release the free acid (VROxxx_hydrol compound) from the prodrug (corresponding VROxxx compound). The chemical structures of compounds […], VRO042, VRO047, VRO052, VRO059, VRO073, […] and VRO244 and their chemical names are provided in [Table 2] above. The structures of VRO001, VRO082, VRO035, VRO119 and VRO243 are provided in [Table 3] below. The cathepsin B was from pork liver homogenate.
The enzymatic assay was performed as follows. Samples of homogenized pork liver (75 mg of fresh tissue per sample) were incubated for 1 hour at 37° C. with Z—FR-AMC (benzyloxycarbonyl-L-[…]-4-methylcoumaryl-7-amide) at […] in 1 M sodium acetate pH 6.0, supplemented with 2.5 mM EDTA, 2.5 mM DTT and 0.1% Triton X-100, and graded concentrations of test substances (between 0.1 nM and […]). The stock solutions of test substances were at 20 mM in DMSO. Fluorescence was determined at 445 nm using 365 nm as the excitation wavelength.

Row | SMILES | penetration of the blood-brain barrier [1] | toxicity for human in 3-year clinical trials [2] | IC50 (cathepsin B) | inhibitory activity against isolated catB, compared to E64c (cathepsin B)
1 | CCOC(=O)[C@H]1O[C@@H]1C(=O)N[C@@H](CC(C)C)C(=O)NCCC(C)C [Compound E64d] | low penetration of the blood-brain barrier | non-toxicity for human | – | –
2 | CC(C)CCNC(=O)C(CC(C)C)N(C)C(=O)C1OC1C(=O)O (stereo not shown) [VRO001_hydrol] | – | – | > 100 nM | unable to inhibit catB
3 | CCOC(=O)[C@H]1O[C@@H]1C(=O)N[C@@H](CC(C)C)C(=O)N(C)CCC(C)C [VRO006, Ethyl (2S,3S)-3-(((S)-1-(isopentyl(methyl)amino)-4-methyl-1-oxopentan-2-yl)carbamoyl)oxirane-2-carboxylate] | – | – | – | quite similar to the one of E64c
4 | CC(C)CCN(C)C(=O)[C@H](CC(C)C)NC(=O)[C@H]1O[C@@H]1C(=O)O [VRO006_hydrol, (2S,3S)-3-(((S)-1-(isopentyl(methyl)amino)-4-methyl-1-oxopentan-2-yl)carbamoyl)oxirane-2-carboxylic acid] | – | – | ≤ 100 nM | –
5 | CC(C)CC(NC(=O)C1OC1C(=O)O)C(=O)NCCC(F)(F)F (stereo not shown) [VRO035_hydrol] | – | – | > 100 nM | inhibitory activity was lost
6 | COCCCNC(=O)[C@H](CC(C)C)NC(=O)[C@H]1O[C@@H]1C(=O)O [VRO042_hydrol, (2S,3S)-3-(((S)-1-((3-3-methoxypropyl)amino)-4-methyl-1-oxopentan-2-yl)carbamoyl)oxirane-2-carboxylic acid] | – | – | ≤ 100 nM | maintaining efficient inhibition of catB
7 | COCCNC(=O)[C@H](CC(C)C)NC(=O)[C@H]1O[C@@H]1C(=O)O [VRO047_hydrol, (2S,3S)-3-(((S)-1-((2-2-methoxyethyl)amino)-4-methyl-1-oxopentan-2-yl)carbamoyl)oxirane-2-carboxylic acid] | – | – | ≤ 100 nM | almost the same activity as E64c
8 | CC(C)C[C@H](NC(=O)[C@H]1O[C@@H]1C(=O)O)C(=O)NCCc1ccccn1 [VRO052_hydrol, (2S,3S)-3-(((S)-4-methyl-1-oxo-1-((2-(pyridin-2-yl)ethyl)amino)pentan-2-yl)carbamoyl)oxirane-2-carboxylic acid] | – | – | ≤ 100 nM | only slightly reduced
9 | CC(C)C[C@H](NC(=O)[C@H]1O[C@@H]1C(=O)O)C(=O)NCCCN1CCCCC1 [VRO059_hydrol, (2S,3S)-3-(((S)-4-methyl-1-oxo-1-((3-(piperidin-1-yl)propyl)amino)pentan-2-yl)carbamoyl)oxirane-2-carboxylic acid] | – | – | ≤ 100 nM | almost similar to E64c
10 | CC(C)C[C@H](NC(=O)[C@H]1O[C@@H]1C(=O)O)C(=O)NCc1ccccc1F [VRO073_hydrol, (2S,3S)-3-(((S)-1-((2-fluorobenzyl)amino)-4-methyl-1-oxopentan-2-yl)carbamoyl)oxirane-2-carboxylic acid] | – | – | ≤ 100 nM | only slightly reduced
11 | COCC(NC(=O)C1OC1C(=O)O)C(=O)NCCC(C)C (stereo not shown) [VRO082_hydrol] | – | – | > 100 nM | did not allow to maintain the inhibitory activity
12 | CC(C)CCNC(=O)[C@H](CC(F)(F)F)NC(=O)[C@H]1O[C@@H]1C(=O)O [VRO109_hydrol, (2S,3S)-3-(((S)-4,4,4-trifluoro-1-(isopentylamino)-1-oxobutan-2-yl)carbamoyl)oxirane-2-carboxylic acid] | – | – | ≤ 100 nM | increased compared to E64c
13 | CC(C)CCNC(=O)C(Cc1ccccn1)NC(=O)C1OC1C(=O)O (stereo not shown) [VRO119_hydrol] | – | – | > 100 nM | not tolerated
14 | CC(C)CCN(C)C(=O)C(CC(F)(F)F)NC(=O)C1OC1C(=O)O (stereo not shown) [VRO243_hydrol] | – | – | > 100 nM | drastic loss of activity
15 | O=C(NCc1ccccc1F)[C@H](CC(F)(F)F)NC(=O)[C@H]1O[C@@H]1C(=O)O [VRO244_hydrol, (2S,3S)-3-(((S)-4,4,4-trifluoro-1-((2-fluorobenzyl)amino)-1-oxobutan-2-yl)carbamoyl)oxirane-2-carboxylic acid] | – | – | ≤ 100 nM | only slightly lower than the prior art E64c
